Our source for the emission maximum values is the Deep4Chem optical property database.

Values joined by “and” are separate entries in the source; they are usually repeats but may differ in a detail not shown here. Equal entries are not always repeated.

This data set is described as follows: solvent given as SMILES.

Turning to `CN(C)c1ccc(/C=C/C=C/c2nc3ccccc3s2)cc1`, the emission maximum (in C1COCCO1) is given as 516 nm; the emission maximum (in CC#N) is 562 nm; the emission maximum (in CC(C)=O) worked out at 557 nm; the emission maximum (in CCCCCC) is 478 nm; the emission maximum (in CCCCO) is recorded as 531 nm; the emission maximum (in CCCO) is given as 533 nm. The emission maximum was 560 nm (in CCO); 567 nm (in CN(C)C=O); 573 nm (in CO); 500 nm (in Cc1ccccc1); 499 nm (in ClC(Cl)(Cl)Cl); 526 nm (in ClC(Cl)Cl). Also, the emission maximum reads like this: (in ClCCl) 533 nm; (in OCC(O)CO) 583 nm; (in OCCO) 583 nm; (in c1ccccc1) 504 nm.

For the setting “in ClCCl”, `CCC1=C(C)C2=C(/C=C/Sc3ccccc3)c3c(C)c(CC)c(C)n3[B-](F)(F)[N+]2=C1C` had an emission maximum of 580 nm.

Turning to `CC(C)c1cc(C(C)C)c(B2c3ccccc3Oc3cc(N4c5ccccc5C5(c6ccccc6Oc6ccccc65)c5ccccc54)ccc32)c(C(C)C)c1`, where the note is “in Cc1ccccc1”, the emission maximum was 451 nm.

Take `COc1ccc2cc(/C=C/C3=CC(c4ccccc4)=[O+][B-](F)(F)O3)ccc2c1`: the emission maximum (in ClCCl) worked out at 566 nm.

Consider `CCCCCCN1C(=O)C(c2ccc(-c3ccc(-n4c5ccccc5c5ccccc54)cc3)cc2)=C(c2ccc(-c3ccc(-n4c5ccccc5c5ccccc54)cc3)cc2)C1=O`, for which the emission maximum by setting is: (in ClC(Cl)Cl) 552 nm; (in c1ccc2c(c1)c1ccccc1n2-c1ccc(-c2ccc(-n3c4ccccc4c4ccccc43)cc2)cc1) 580 nm.

As to `c1cc2ccc3ccc4cc3c2cc1c1ccc2ccc3ccc(cc3c2c1)c1ccc2c(c1)c1cc4ccc1[C@]13OCCO[C@]21OCCO3`, the emission maximum (in Cc1ccccc1) is listed as 421 nm.

On to `CC(C)n1c(=O)c2cc3ccc4cccc5ccc(c2c1=O)c3c45`, for which, where the note is “in ClC(Cl)Cl”, the emission maximum is 457 nm.

Turning to `CCN(CC)c1ccc2c(-c3ccccc3C(=O)O)c3c([o+]c2c1)/C(=C/c1ccc2c(c1)c1ccccc1n2CC)CCC3`, under “in ClCCl”, the emission maximum stood at 712 nm.

With `COc1cc2c(cc1-c1ccsc1)Cc1c3c(c4c(c1-2)-c1cc(OC)c(-c2ccsc2)cc1C4)C(=O)N(CCC(C)C)C3=O`, where the note is “in C1CCOC1”, the emission maximum is given as 487 nm.

Regarding `CC1=CC(C)=[N+]2C1=C(c1ccc3cccnc3n1)c1c(C)cc(C)n1[B-]2(F)F`, the emission maximum came to 516 nm (in CC#N); 524 nm (in CCCCCC); 521 nm (in CO); 527 nm (in ClC(Cl)Cl); 522 nm (in ClCCl).

Consider `CC[N+]1(CC)CN2C(=N1)C(C(=O)O)=Cc1cc(C)c(C)cc12`, for which the emission maximum (in O) is 466 nm.

As to `Cc1cc(C)c(B(c2c(C)cc(C)cc2C)N2c3ccccc3C3(c4ccccc4-c4ccccc43)c3ccccc32)c(C)c1`, the emission maximum is listed as 527 nm (in C1CCCCC1), 538 nm (in Cc1ccccc1) and 560 nm (in ClCCl).

Regarding `CCCCn1c2ccc(/C=C(\C#N)c3ccc([N+](=O)[O-])cc3)cc2c2cc(Cn3c(-c4ccc5c(c4)c4ccccc4n5CCCC)nc4ccccc43)ccc21`, the emission maximum amounted to 539 nm (in C1CCOC1); 580 nm (in CC#N); 520 nm (in CCO); 528 nm (in CCOC(C)=O); 581 nm (in CN(C)C=O); 568 nm (in ClCCl). Moreover, the emission maximum by setting is: (in O) 570 nm; (in c1ccccc1) 505 nm.

Consider `CC1(C)c2ccccc2N(c2ccc(-c3nc4cccc5c4n3-c3ccccc3C5(C)C)cc2)c2ccccc21`, for which the emission maximum (in Cc1ccccc1) was determined as 450 nm and the emission maximum (in O=P(c1ccccc1)(c1ccccc1)c1ccccc1Oc1ccccc1P(=O)(c1ccccc1)c1ccccc1) is 449 nm.

With `CC1(C)c2ccccc2N(c2ccc3c(c2)C(C)(C)c2cc(N4c5ccccc5C(C)(C)c5ccccc54)ccc2S3(=O)=O)c2ccccc21`, the emission maximum is 473.1 nm (in C1CCOC1); 526.32 nm (in CC#N); 451.46 nm and 453.62 nm (in Cc1ccccc1); 504 nm (in ClCCl).

In the case of `Cc1ccc(/N=C2\N=C(N)c3cccc4cccc2c34)cc1`, under “in ClCCl”, the emission maximum is 498 nm.

With `COc1ccc(/C=C/c2nc3ccccc3s2)cc1`, the emission maximum was determined as 400 nm (in C1CCCCC1) and 420 nm (in CO).

For the setting “in ClC(Cl)Cl”, `COc1ccc(N(c2ccc(OC)cc2)c2ccc(-c3ccc(C=C(C#N)C#N)s3)cc2)cc1` registered an emission maximum of 700 nm.

Turning to `CC(=O)c1ccc(-c2cc3c(ccc4sccc43)s2)cc1`, the emission maximum (in ClCCl) is on record as 430 nm.

In the case of `c1ccc(-n2c3ccccc3c3cc([Si](c4ccccc4)(c4ccccc4)c4ccc5c(c4)c4ccccc4n5-c4ccccc4)ccc32)cc1`, under “in ClCCl”, the emission maximum was 350 nm.

Turning to `CN(C)c1ccc(C#Cc2ccc3ccc4c(C#Cc5ccc(N(C)C)cc5)ccc5ccc2c3c54)cc1`, the emission maximum (in C1COCCO1) amounted to 489.2 nm; the emission maximum (in CC(C)=O) is reported as 569.6 nm; the emission maximum (in CCCCCC) was 460.4 nm; the emission maximum (in CCCCCCO) was 528.2 nm; the emission maximum (in CCO) is on record as 540 nm; the emission maximum (in CCOC(C)=O) is recorded as 523.5 nm. For the same compound, the emission maximum is 554 nm (in CO), 483.7 nm (in Cc1ccccc1) and 532.8 nm (in ClCCl).

For the compound `CC1=CC(C)=[N+]2C1=C(c1ccc(I)cc1)c1c(C)cc(C)n1[B-]2(OCc1ccccc1)OCc1ccccc1`, the emission maximum (in ClC(Cl)Cl) amounted to 521.92 nm.

For the setting “in CO”, `Cc1ccc(C2=C3C=CC(Nc4ccccc4)=[N+]3[B-](F)(F)n3c(Nc4ccccc4)ccc32)cc1` came in with an emission maximum of 613 nm.

Compound `c1ccc(-c2ccc3c4ccc(-c5ccccc5)c5c(-c6ccccc6)ccc(c6ccc(-c7ccccc7)c2c36)c54)cc1` had an emission maximum (in ClCCl) of 520 nm.

Turning to `[O-][n+]1c(/C=C/c2ccccc2)nc(N2CCOCC2)c2c1CCCC2`, the emission maximum (in ClCCl) is 535 nm.

Take `CCN1c2ccc(-c3cc(C(F)(F)F)[nH]n3)cc2Sc2cc(-c3cc(C(F)(F)F)[nH]n3)ccc21`: the emission maximum by setting is: (in C1CCOC1) 469 nm; (in CC#N) 469 nm; (in CN(C)C=O) 464 nm; (in ClCCl) 467 nm; (in c1ccccc1) 463 nm.

`CCCCCCCCOc1ccc(C2=C3C(C)=CC(C)=[N+]3[B-](F)(F)n3c(C)cc(C)c32)cc1` showed an emission maximum (in ClCCl) of 513 nm.

`CCCCCCCCc1ccc(-c2c3cc(-c4cc(CCCCCCCC)c(-c5ccc(-c6sc(/C=C7\SC(N8CCCCC8)=NC7=O)cc6CCCCCCCC)s5)s4)sc3c(-c3ccc(CCCCCCCC)s3)c3cc(-c4cc(CCCCCCCC)c(-c5ccc(-c6sc(/C=C7\SC(N8CCCCC8)=NC7=O)cc6CCCCCCCC)s5)s4)sc23)s1` had an emission maximum (in ClC(Cl)Cl) of 576 nm.

`C[Si](C)(C)c1ccc2ccc3cccc4ccc1c2c34`: the emission maximum runs as follows: (in CCCCCC) 346 nm; (in CO) 376 nm; (in ClCCl) 377 nm.

As for `F[B-]1(F)n2c(/C=C/c3ccc(C(=C(c4ccccc4)c4ccccc4)c4ccccc4)cc3)ccc2C(c2ccc(C(=C(c3ccccc3)c3ccccc3)c3ccccc3)cc2)=C2C=CC(/C=C/c3ccc(C(=C(c4ccccc4)c4ccccc4)c4ccccc4)cc3)=[N+]21`, the emission maximum (in C1CCOC1) turned out to be 685 nm.

For the setting “in O”, `Cc1ccccc1C1=C2C=CC(=[N+](C)C)C=[C]2[Ge]([CH3])([CH3])[c]2cc(N(C)C)ccc21` returned an emission maximum of 649 nm.

Under “in ClC(Cl)Cl”, `CC(C)(C)[Si](C)(C)C#Cc1c2c(=O)c3ccccc3c2c(C#C[Si](C)(C)C(C)(C)C)c2c(=O)c3ccccc3c12` showed an emission maximum of 571 nm.
